Experimental findings from patent EP0171342A1, “Substituted 2-(1-amino-akylidenyl)1,3-indane diones, process for their preparation and their therapeutical use” (priority 1984, dated 1986) are described below.

Converted amounts (≈) assume the structure as drawn. Read-outs that look alike come from different tables or passages of the source.

In data set [1] the test system is souris. Briefly: Anticonvulsant activity: maximal electroshock convulsions in mice. In kind it is in vivo. The following applies: mouse, oral, 100 mg/kg, one hour after administration. From the text:
L'activité anticonvulsivante est appréciée dans le test de la prévention des convulsions induites par des électrochocs d'intensité maximale.

The subject of data set [2] is souris. Briefly: Acute toxicity (mortality, LD50) in mice. The following applies: mouse. In kind it is in vivo.
The test system of data set [3] is rat soumis à une surcharge hydrique. Nature of the data set: Diuretic activity in rats given a water overload, oral. In kind it is in vivo. The following applies: rat, water overload, oral; for facteur multipliant l'excrétion sodique: 10 mg/kg; for response vs control in vivo at 20 mg/kg: read-out: facteur multipliant l'excrétion urinaire du sodium. Here is the method: L'activité diurétique a été déterminée sur plusieurs modèles expérimentaux. Chez le rat soumis à une surcharge hydrique, administrés par voie orale à la dose de 20 mg/kg, le COR3760, le COR3789, le COR3792, le COR4002, le COR4003, le COR4009, le COR4010, le COR4012 et le COR4014 multiplient l'excrétion urinaire du sodium par respectivement un facteur 2,9 - 3,1 - 5,9 - 2,6 - 7,2 - 3,5 - 3,8 - 2,9 - 2,4. Administrés à la dose de 10 mg/kg, dans les mêmes conditions, les COR3760, COR3789, COR3792, COR4003 et COR4010 multiplient l'excrétion sodique par respectivement 2,3 - 2,9 - 2,8 - 2,4 et 2,5. La spironolactone multiplie quant à elle l'excrétion sodique d'un facteur 3,6 à la dose de 20 mg/kg. Administré à la dose de 5 mg/kg dans les mêmes conditions, le COR3792 multiplie l'excrétion sodique par 3,3. Administré par voie orale chez le rat ou la souris soumis à une surcharge saline, le COR3760 augmente l'excrétion urinaire volumétrique mesurée à la sixième heure de respectivement 49, 119 et 134% chez la souris et 28, 84 et 116% chez le rat après administration de 10, 20, et 40 mg/kg. Le COR3760 a été administré par voie orale au rat soumis à une surcharge hydrique et l'excrétion urinaire volumétrique, le sodium et le potassium excrétés ont été mesurés sur une période de 6 heures; ces paramètres ont varié de respectivement +17%, +102%, +165% à 10 mg/kg, +19%, +147%, +180% à 20 mg/kg et +36%, +415% et +239% à 40 mg/kg; le rapport Na/K passe de 0,56 chez les animaux témoins à 0,4 à 10 mg/kg, 0,49 à 20 mg/kg et 0, 8 à 40 mg/ kg. Au cours d'une seconde expérimentation, le COR3760 a entrainé des variations de +19%, +157%, +70% à 40 mg/kg, +19%, +319%, +90% à 60 mg/kg et +29%, +472% et +77% à 80 mg/kg; le rapport Na/K passe de 0,59 chez les animaux témoins à 0,88 à 40, 1,15 à 60 et 1,88 à 80 mg/kg.

The test system of data set [4] is rat Wistar soumis à une surcharge saline. Nature of the data set: Diuretic activity in selected Wistar rats given a saline overload (modified Wiebelhaus test). In kind it is in vivo. Here is the method:
L'activité diurétique des produits selon l'invention a été également déterminée chez le rat Wistar soumis à une surcharge saline selon une modification du test décrit par Wiebelhaus et coll., Fed. Proc., 1960, 19, 364, en procédant à une sélection des animaux. A la dose de 20 mg/kg, les COR4003, COR4008, COR4009, COR4010, COR4011, COR4012, COR4014, COR4016, COR4021, COR4025 augmentent l'excrétion urinaire volumétrique mesurée au bout de 6 heures de respectivement 56, 54, 65, 95, 73, 54, 33, 40, 99 et 92 %. L'excrétion urinaire du sodium augmente de respectivement 56, 24, 42, 59, 43, 33, 29, 43, 31, 83, 26, 99, 40 % toujours à cette dose pour les COR4003, COR4008, COR4009, COR4010, COR4011, COR4012, COR4014, COR4016, COR4017, COR4021, COR4023, COR4025 et COR4026. Le rapport Na/K demeure la plupart du temps inchangé. Testé dans les mêmes conditions le furosémide, administré à la dose de 20 mg/kg entraine 63% d'augmentation de l'excrétion urinaire volumétrique et 53% d'augmentation de l'excrétion urinaire du sodium.

Another data set concerns iléon de cobaye. Nature of the data set: Spasmolytic activity: guinea pig ileum contractions induced by transmural stimulation. The following applies: 2 microg/ml, oxygenated Krebs solution at 32°C; read-out: inhibition de ces contractions. Here is the method: L'activité spasmolytique a été déterminée in vitro par la mesure de l'effet du produit à tester sur les contractions de l'iléon de cobaye induites par stimulation transmurale dans une solution de Krebs oxygénée à 32°C. Le COR4010 et le COR3773 utilisés à la concentration de 2 microg/ml entrainent 50% d'inhibition de ces contractions.

Data set [5] relates to oedème induit par l'injection intraplantaire de carragénine chez le rat. Nature of the data set: Anti-inflammatory activity: carrageenan paw oedema in rats. In kind it is in vivo. The following applies: oral 1 h before carrageenan, measured 3 h after, dose 10b mg/kg [sic]. As for the experimental part: L'activité antiinflammatoire a été déterminée chez le rat par la mesure de l'inhibition de l'oedème induit par l'injection intraplantaire de 0,1 ml d'une suspension à 1% de carragénine chez le rat. Les produits à tester sont administrés par voie orale lh avant l'injection de carragénine et la mesure est réalisée 3h après cette injection. Les COR3789, COR3792, COR4003, COR4008 et COR4010 administrés à 10b mg/kg entrainent respectivement 43, 42, 41, 38 et 39% d'inhibition. Administré à 200 mg/kg, le COR3773 entraine 53% d'inhibition. L'aspirine administrée dans les mêmes conditions à 150 mg/kg entraine 40% d'inhibition de l'oedème.

The subject of data set [6] is poumon de cobaye isolé perfusé. Briefly: Bronchodilator activity: isolated perfused guinea pig lung contracted by methacholine. The conditions noted are these: flow of Tyrode solution, lung contracted by 0,05 microg/ml methacholine; read-out: concentration qui augmente ce débit de 50%. From the text:
L'activité bronchodilatatrice a été déterminée in vitro par la mesure du débit d'une solution de Tyrode à travers un poumon de cobaye isolé perfusé, contracté par l'addition au fluide de perfusion de 0,05 microg/ml de méthacholine. Les COR3760, COR3789, COR3792, COR4003, COR4008, COR4010 et COR4014 utilisés respectivement aux concentrations de 50, 50, 100, 10, 50, 50 et 10 microg/ml augmentent ce débit de 50%. L'aminophylline entraine cette même activité à la concentration de 100 microg/ml.

Data set [7] relates to segments d'iléon de cobaye isolés. Nature of the data set: Anticholinergic activity: acetylcholine-induced contractions of isolated guinea pig ileum. The conditions noted are these: Cavia porcellus; contractions induced by 0,1 microg/ml acetylcholine; read-out: concentration qui inhibe ces contractions de 80%. From the text:
L'activité anticholinergique a été appréciée par la mesure des contractions induites par 0,1 microg/ml d'acétylcholine sur des segments d'iléon de cobaye isolés. Les COR3760, COR3789, COR3792, COR4003, COR4008, COR4010, COR4014 utilisés respectivement aux concentrations de 50, 25, 25, 50, 25, 10, 25 microg/ml inhibent ces contractions de 80%.

For data set [8], the system named is oreillette gauche de cobaye. Briefly: Calcium antagonist activity: electrically stimulated guinea pig left atrium. The following applies: 150 beats/min, low-calcium (0,6 mM) Tyrode solution; read-out: concentration qui inhibe de 50% l'augmentation de la force de contraction induite par l'addition de 0,6 mM de calcium. As for the experimental part:
L'activité anticalcique a été déterminée in vitro sur deux modèles expérimentaux.
Sur oreillette gauche de cobaye stimulée électriquement à 150 battements/mn dans une solution de Tyrode pauvre en calcium (0,6 mM), les COR3789, COR3792, COR4009, COR4010 et COR4011 employés respectivement à 25, 100, 50, 10 et 25 microg/ml inhibent de 50% l'augmentation de la force de contraction induite par l'addition de 0,6 mM de calcium.

Data set [9] has as its system strips de veines mésentériques porte de rats normotendus. Briefly: Calcium antagonist activity: spontaneous contractions of rat portal mesenteric vein strips. The conditions noted are these: 10 microg/ml.
Data set [10] concerns souris. Nature of the data set: Antidepressant activity: inhibition of reserpine-induced ptosis in mice. In kind it is in vivo. The following applies: mouse, oral 50 mg/kg 90 min before reserpine 5 mg/kg i.p.; index 0 (maximum ptosis) to 6 (no ptosis). As for the experimental part: L'activité antidépressive a été déterminée dans le test de potentialisation de la toxicité de la yohimbine et dans le test de l'inhibition du ptosis induit par la réserpine.
On injecte par voie sous cutanée à des souris, lh avant l'administration par voie orale du produit à tester, une dose non léthale de yohimbine soit 15 mg/kg. Le COR3760 administré à la dose de 100 mg/kg entraine 80% de mortalité dans ces conditions. Des souris reçoivent par voie orale le produit à tester 90 mn avant l'injection par voie intrapéritonéale de 5 mg/kg de réserpine solubilisée. On cote le ptosis selon un index allant de 0 à 6, la cote 0 correspondant à un ptosis maximum et la cote 6 à l'absence de ptosis. Les COR3760 et COR4011 conduisent dans les conditions de l'expérience à un ptosis coté à 4 pour une dose de respectivement 200 et 50 mg/kg.

Data set [11] addresses oreillettes droites de cobaye (Cavia porcellus, UniProt P47747). Briefly: Anti-H2 activity: histamine-induced chronotropic effect on unstimulated guinea pig right atria.
[12] abbreviates: 6 h, read-out: augmentation de l'excrétion urinaire volumétrique mesurée au bout de 6 heures.
Setting [13] is: read-out: augmentation de l'excrétion urinaire du sodium.

Chain of oreillettes droites de cobaye (P47747 whole entry): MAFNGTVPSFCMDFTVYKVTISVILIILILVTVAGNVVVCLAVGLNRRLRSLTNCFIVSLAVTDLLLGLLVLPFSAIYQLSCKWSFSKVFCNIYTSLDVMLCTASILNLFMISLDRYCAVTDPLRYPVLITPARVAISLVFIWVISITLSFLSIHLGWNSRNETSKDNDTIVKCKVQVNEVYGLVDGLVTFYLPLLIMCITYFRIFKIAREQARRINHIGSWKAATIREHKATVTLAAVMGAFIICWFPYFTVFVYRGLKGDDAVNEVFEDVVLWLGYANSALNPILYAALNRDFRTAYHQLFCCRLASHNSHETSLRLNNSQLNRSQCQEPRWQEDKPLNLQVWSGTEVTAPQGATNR

In the case of `CCCC(C)(COC(N)=O)COC(N)=O` [méprobamate, reference compound], the “prévention des convulsions induites par des électrochocs d'intensité maximale” value in the data set with souris [1] is recorded as “on n'observe plus de convulsions”.
As to `CCCCNC(C)=C1C(=O)c2ccccc2C1=O` [COR4010, (Butylamino-1 éthylidényl)-2 indanedione-1,3], the mortalité result is “aucune mortalité” in the data set on souris [2] (intraperitoneal, 200 mg/kg) and “aucune mortalité” in the data set with souris [2] (oral, 300 mg/kg). Besides, the “facteur multipliant l'excrétion sodique” value in data set [3] is on record as 2,5. In [3], the response vs control in vivo at 20 mg/kg stood at 380%. For the same molecule, the change in vivo at 20 mg/kg was found to be 95% in [4] (setting [12]) and 59% in data set [4] (setting [13]). For the same molecule, the inhibition at 2 µg/mL in the data set with iléon de cobaye stood at 50%. In addition, the “inhibition de l'oedème” value in [5] was determined as 39%. The EC50 in data set [6] stood at 50 µg/mL (≈ 206 µM). In addition, the IC80 in data set [7] is 10 µg/mL (≈ 41.1 µM). Besides, the IC50 in data set [8] came to 10 µg/mL (≈ 41.1 µM). Moreover, in data set [9], the “inhibition de l'augmentation, induite par le calcium, des contractions spontanées” value is on record as “inhibent l'augmentation”.
Consider `CCNC(C)=C1C(=O)c2ccccc2C1=O` [COR3789, (Ethylamino-1 éthylidène)-2 indanedione-1,3], for which, in the data set on souris [2] (intraperitoneal, 200 mg/kg), the mortalité result is recorded as “aucune mortalité”. Moreover, the mortalité entry in the data set with souris [2] (oral, 300 mg/kg) was “aucune mortalité”. Further, in data set [3], the “facteur multipliant l'excrétion sodique” value is reported as 2,9 and the response vs control in vivo at 20 mg/kg amounted to 310%. Besides, in data set [5], the “inhibition de l'oedème” value is given as 43%. Besides, the EC50 in data set [6] is 50 µg/mL (≈ 232 µM). The IC80 in data set [7] turned out to be 25 µg/mL (≈ 116 µM). Moreover, the IC50 in data set [8] turned out to be 25 µg/mL (≈ 116 µM). Moreover, the “inhibition de l'augmentation, induite par le calcium, des contractions spontanées” value in data set [9] is listed as “inhibent l'augmentation”.
As for `CC(NCC1CC1)=C1C(=O)c2ccccc2C1=O` [COR4011, (Cyclopropylméthylamino-1 éthylidényl)-2 indanedione-1,3], the mortalité entry in the data set on souris [2] (intraperitoneal, 200 mg/kg) is listed as “aucune mortalité”; in the data set on souris [2] (oral, 300 mg/kg) it was “aucune mortalité”. Besides, the change in vivo at 20 mg/kg in [4] (setting [12]) is 73%; in data set [4] (setting [13]), 43%. Besides, the “ptosis coté” value in the data set on souris [10] turned out to be 4. The IC50 in data set [8] is 25 µg/mL (≈ 104 µM); in data set [11] (read-out: concentration qui inhibe de 50 % cet effet chronotrope, chronotropic effect induced by 5 microg/ml histamine), 207 µM. Moreover, in data set [9], the “inhibition de l'augmentation, induite par le calcium, des contractions spontanées” value is recorded as “inhibent l'augmentation”. Besides, the “effet chronotrope négatif intrinsèque” value in data set [11] (at the concentration inhibiting the histamine effect by 50 % (COR4003 100, COR4011 50 microg/ml)) is “ne présentant pas d'effet chronotrope négatif intrinsèque”.
